How the values were obtained:
[1] = test system: LU99; test: In vitro combination synergy, LU99 (Cell-Titer Glo); type: cell-based; conditions: combined with exemplary PRMT5 inhibitor, 120 h, sum of Loewe, Bliss, HSA and ZIP scores
Experimental: (§1) A panel of MTAP-deleted cancer cell lines was assembled to determine whether combining BCL-2 family inhibitors with exemplary PRMT5 inhibitors disclosed herein results in synergistic activity.
(§2) [Assays for determining the synergy score for the pairwise combinations for each cell line were performed in triplicate. 384 or 96-well plates plus additional wells of a separate 384 or 96-well control plate for determining baseline luminescence were seeded with cells of a particular MTAP-deleted cell line in a suitable growth medium for that cell line, e.g., RPMI 1640 medium supplemented with 10% FBS and any cell line specific reagents needed for growth. The plates were incubated overnight at 37 °C in a 5% CO2 atmosphere.
(§3) To each of the designated baseline wells, Cell-Titer Glo reagent (CTG; Promega Corporation) was added to each well and the plates were incubated for 20 min shaking at room temperature. Baseline luminescence was quantitated using a BMG ClarioStar multimode plate reader according to the manufacturer's instructions.
(§4) A series of 1000× drug dilutions in 100% DMSO was prepared that includes a 9-point single agent 3-fold dilution of the exemplary PRMT5 inhibitor (of the type described in WO2021/050915) with a top dose of 3000 nM (and a 6-point single agent 5-fold dilution of the BCL-2 family inhibitor with a top dose of 3000 nM as reference standards.
(§5) A 10× intermediate dosing plate was prepared in serum free medium that contains arrayed single agent dilutions of exemplary PRMT5 inhibitor (of the type described in WO2021/050915) and or the BCL-2 family inhibitor. In addition, a matrix of 54 dilution combinations of exemplary PRMT5 inhibitor (of the type described in WO2021/050915) and the BCL-2 family inhibitor was prepared as test samples.
(§6) To each corresponding well of the 384-well plates seeded with the appropriate cell line above, 10× single agent and the 54 combinations of the dose matrix was added and the plates were incubated for 120 hours at 37 °C in 5% CO2 atmosphere. Cell-Titer Glo reagent (CTG) was added to each test well, the plates were incubated for 20 min shaking at room temperature, and luminescence was quantitated using a BMG ClarioStar multimode plate reader according to the manufacturer's instructions. To normalize test samples, the determined baseline luminescence was subtracted from each test sample prior to analysis and mean values are calculated from replicate samples.
(§7) The output of the data from each mathematical model is the assignment of a relative synergy score. The data reported in Table 6 are the aggregate sum of the Loewe additivity, Bliss independence, Highest Single Agent and ZIP synergy scores (“Composite Synergy Score”).

[2] = test system: Mero14; test: In vitro combination synergy, Mero14 (Cell-Titer Glo); type: cell-based; conditions: combined with exemplary PRMT5 inhibitor, 120 h, sum of Loewe, Bliss, HSA and ZIP scores
Experimental: as §1, §2, §3, §4, §5, §6, §7

[3] = test system: NCI-H1650 xenograft tumors; test: In vivo combination study (NCI-H1650 model), Example 5; parameters: species or system female nu/nu mice; conditions: MRTX1719 and ABT-263 100 mg/kg PO QD, A-1331852 25 mg/kg PO BID, alone or combined
Text: (§8) Immunodeficient female nu/nu mice were implanted with 5×10^6 LU99 cancer cells in 50% Matrigel. Tumor volume measurements were collected using calipers and determined utilizing the formula 0.5×L×W^2 in which L refers to length and W refers to width of each tumor. When tumors reached approximately 125-150 mm^3, animals were randomized to receive A) vehicle, B) a PRMT5 inhibitor, C) navitoclax (ABT-263), D) venetoclax (ABT-199), E) A-1331852, F) the PRMT5 inhibitor and navitoclax, F) the PRMT5 inhibitor and venetoclax, or G) the PRMT5 inhibitor and A-1331852 all administered orally (PO) with the indicated dose and schedule for 20-34 days. Tumor volume was measured twice a week (n=5/treatment group). Average tumor volume and standard error of the mean was calculated and plotted at each study day using GraphPad Prism.
Example 5 was carried out using NCI-H1650 cell line derived xenografts according to the in vivo study procedure described above in Example 1.
(§9) The PRMT5 inhibitor was MRTX1719 administered at 100 mg/kg once a day (QD). MRTX1719 is (2M)-2-(4-(4-(aminomethyl)-1-oxo-1,2-dihydrophthalazin-6-yl)-1-methyl-1H-pyrazol-5-yl)-4-chloro-6-cyclopropoxy-3-fluorobenzonitrile, disclosed as Example 16-8 at p. 307 of the international patent publication No. WO 2021/050915 A1, published 18 Mar. 2021, incorporated by reference in its entirety. The BCL-2 family inhibitor, ABT-263 (navitoclax), was administered at 100 mg/kg once a day (QD) and supplied by Selleck Chemicals (Houston, TX). The BCL-2 family inhibitor A-1331852 was administered at 25 mg/kg twice a day (BID) and synthesized at Wuxi AppTec (Wuhan, China).

[4] = test system: SW1573 xenograft tumors; test: In vivo combination study (SW1573 model), Example 3; parameters: species or system female nu/nu mice; conditions: MRTX1719 and ABT-263 100 mg/kg PO QD, A-1331852 25 mg/kg PO QD, alone or combined
Text: as §8
Example 3 was carried out in SW1573 cell line derived xenografts according to the in vivo study procedure described above in Example 1.
as §9, with “once” for “twice”, “(QD)” for “(BID)”

[5] = test system: NCI-H1437 xenograft tumors; test: In vivo combination study (NCI-H1437 model), Example 2; parameters: species or system female nu/nu mice; conditions: MRTX1719 and ABT-263 100 mg/kg PO QD, A-1331852 25 mg/kg PO QD, alone or combined
Text: as §8
Example 2 was carried out using NCI-H1437 cell line derived xenografts according to the in vivo study procedure described above in Example 1.
as §9, with “once” for “twice”, “(QD)” for “(BID)”

CC1(C)CCC(c2ccc(Cl)cc2)=C(CN2CCN(c3ccc(C(=O)NS(=O)(=O)c4ccc(N[C@H](CCN5CCOCC5)CSc5ccccc5)c(S(=O)(=O)C(F)(F)F)c4)cc3)CC2)C1 [ABT-263, navitoclax]
Composite Synergy Score [1]: 41 | Composite Synergy Score [2]: 18 | Average Tumor Volume ([3]; day 0): 155 mm^3 | Average Tumor Volume ([3]; day 5): 186 mm^3 | Average Tumor Volume ([3]; day 8): 210 mm^3 | Average Tumor Volume ([3]; day 13): 302 mm^3 | Average Tumor Volume ([3]; day 15): 319 mm^3 | Average Tumor Volume ([3]; day 19): 339 mm^3 | Average Tumor Volume ([3]; day 22): 371 mm^3 | Average Tumor Volume ([4]; day 3): 265 mm^3 | Average Tumor Volume ([4]; day 6): 328 mm^3 | Average Tumor Volume ([4]; day 10): 395 mm^3 | Average Tumor Volume ([4]; day 13): 536 mm^3 | Average Tumor Volume ([4]; day 17): 678 mm^3 | Average Tumor Volume ([4]; day 20): 809 mm^3 | Average Tumor Volume ([4]; day 26): 1133 mm^3 | Average Tumor Volume ([4]; day −1): 123 mm^3 | Average Tumor Volume ([5]; day 4): 172 mm^3 | Average Tumor Volume ([5]; day 7): 192 mm^3 | Average Tumor Volume ([5]; day 11): 244 mm^3 | Average Tumor Volume ([5]; day 14): 269 mm^3 | Average Tumor Volume ([5]; day 18): 288 mm^3 | Average Tumor Volume ([5]; day 21): 299 mm^3 | Average Tumor Volume ([5]; day 25): 389 mm^3 | Average Tumor Volume ([5]; day 28): 420 mm^3 | Average Tumor Volume ([5]; day 34): 472 mm^3 | Average Tumor Volume ([5]; day −1): 138 mm^3

From patent publication US20260355188A1, “COMBINATION THERAPIES USING PRMT5 INHIBITORS AND BCL-2 FAMILY INHIBITORS FOR THE TREATMENT OF CANCER” (MIRATI THERAPEUTICS, INC., priority 2022, published 2026)
